Starred links: 1 amine or outer side, 2 acyl side, 3 side chain; linkers in the order of their positions; H or OH if unused. Residues, ends and D or L forms follow the SMILES beside them. Groups on a side chain read outwards from the residue. *: point of attachment. C18 diacid = O=C(O)CCCCCCCCCCCCCCCCC(=O)*; γGlu = O=C(O)[C@H](CCC(=O)[*:2])N[*:1]; AEEA = NCCOCCOCC(=O)O

In one assay the target is T1, human CRHR2b (Homo sapiens, UniProt Q13324).
T1 construct: expressed in transfected cells; host or cells: Chinese Hamster Ovary (CHO) cells, transient transfection
T1 sequence (Q13324 1-438 isoform Q13324-2): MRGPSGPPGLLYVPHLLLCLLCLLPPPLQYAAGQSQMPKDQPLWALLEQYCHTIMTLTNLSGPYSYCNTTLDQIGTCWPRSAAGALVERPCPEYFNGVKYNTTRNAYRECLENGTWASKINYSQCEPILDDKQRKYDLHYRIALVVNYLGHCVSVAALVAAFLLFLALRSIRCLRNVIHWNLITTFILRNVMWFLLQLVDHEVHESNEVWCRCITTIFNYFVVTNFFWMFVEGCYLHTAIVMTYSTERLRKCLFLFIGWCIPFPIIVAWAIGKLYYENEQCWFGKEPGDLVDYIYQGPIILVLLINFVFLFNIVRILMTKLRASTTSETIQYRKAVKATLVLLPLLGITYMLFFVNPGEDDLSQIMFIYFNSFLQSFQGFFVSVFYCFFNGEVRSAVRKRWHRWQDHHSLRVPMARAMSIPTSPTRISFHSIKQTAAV
As to the kind of experiment: human CRHR2b cell-based cAMP assay.
Details: not given
In a few lines: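 ED50 values are means ± SEM over several runs, curve-fitted from cAMP in pmol, calibrated against unlabeled-cAMP standards. Detection was HTRF competition, ratio 665/620 nm, after 30 min agonist exposure at 37 °C.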
`CC[C@H](C)[C@H](N)C(=O)N[C@H](C(=O)N[C@@H](CC(C)C)C(=O)N[C@@H](CO)C(=O)N[C@@H](CC(C)C)C(=O)N[C@@H](CC(=O)O)C(=O)N[C@H](C(=O)N1CCC[C@H]1C(=O)N[C@H](C(=O)NCC(=O)N[C@@H](CC(C)C)C(=O)N[C@@H](CC(C)C)C(=O)N[C@@H](CCC(N)=O)C(=O)N[C@H](C(=O)N[C@@H](CC(C)C)C(=O)N[C@@H](CC(C)C)C(=O)N[C@@H](CCCCNC(=O)COCCOCCNC(=O)COCCOCCNC(=O)CC[C@H](NC(=O)CC[C@H](NC(=O)CCCCCCCCCCCCCCCCC(=O)O)C(=O)O)C(=O)O)C(=O)N[C@@H](CCC(N)=O)C(=O)N[C@@H](CCC(=O)O)C(=O)N[C@@H](CCCCN)C(=O)N[C@@H](CCC(N)=O)C(=O)N[C@@H](CCC(=O)O)C(=O)N[C@@H](CCCCN)C(=O)N[C@@H](CCC(=O)O)C(=O)N[C@@H](CCCCN)C(=O)N[C@@H](CCC(N)=O)C(=O)N[C@@H](CCC(N)=O)C(=O)N[C@@H](C)C(=O)N[C@H](C(=O)N[C@H](C(=O)N[C@@H](CC(N)=O)C(=O)N[C@@H](C)C(=O)N[C@@H](CCC(N)=O)C(=O)N[C@H](C(=O)N[C@@H](CC(C)C)C(=O)N[C@@H](C)C(=O)N[C@@H](Cc1c[nH]cn1)C(=O)N[C@H](C(N)=O)C(C)C)[C@@H](C)CC)[C@@H](C)O)[C@@H](C)O)[C@@H](C)CC)[C@@H](C)CC)C(C)C)C(C)C` [Compound 43] (H-IVLSLDVPIGLLQILLK([AEEA-AEEA-γGlu-γGlu-C18 diacid])QEKQEKEKQQATTNAQILAHV-NH2) had an EC50 of 0.0126 µM.

Staying with this assay, now noted: cAMP assay; Table 26, compounds of Example 9; read-out: hCRHR2b Average EC50.
In the case of `CC[C@H](C)[C@H](N)C(=O)N[C@H](C(=O)N[C@@H](CC(C)C)C(=O)N[C@@H](CO)C(=O)N[C@@H](CC(C)C)C(=O)N[C@@H](CC(=O)O)C(=O)N[C@H](C(=O)N1CCC[C@H]1C(=O)N[C@H](C(=O)NCC(=O)N[C@@H](CC(C)C)C(=O)N[C@@H](CC(C)C)C(=O)N[C@@H](CCC(N)=O)C(=O)N[C@H](C(=O)N[C@@H](CCCCNC(=O)COCCOCCNC(=O)COCCOCCNC(=O)CC[C@H](NC(=O)CC[C@H](NC(=O)CCCCCCCCCCCCCCCCC(=O)O)C(=O)O)C(=O)O)C(=O)N[C@@H](CC(C)C)C(=O)N[C@@H](CCC(=O)O)C(=O)N[C@@H](CCC(N)=O)C(=O)N[C@@H](CCC(=O)O)C(=O)N[C@@H](CCCCN)C(=O)N[C@@H](CCC(N)=O)C(=O)N[C@@H](CCC(=O)O)C(=O)N[C@@H](CCCCN)C(=O)N[C@@H](CCC(=O)O)C(=O)N[C@@H](CCCCN)C(=O)N[C@@H](CCC(N)=O)C(=O)N[C@@H](CCC(N)=O)C(=O)N[C@@H](C)C(=O)N[C@H](C(=O)N[C@H](C(=O)N[C@@H](CC(N)=O)C(=O)N[C@@H](C)C(=O)N[C@@H](CCC(N)=O)C(=O)N[C@H](C(=O)N[C@@H](CC(C)C)C(=O)N[C@@H](C)C(=O)N[C@@H](Cc1c[nH]cn1)C(=O)N[C@H](C(N)=O)C(C)C)[C@@H](C)CC)[C@@H](C)O)[C@@H](C)O)[C@@H](C)CC)[C@@H](C)CC)C(C)C)C(C)C` [Compound 41] (H-IVLSLDVPIGLLQIK([AEEA-AEEA-γGlu-γGlu-C18 diacid])LEQEKQEKEKQQATTNAQILAHV-NH2), the EC50 amounted to 0.207 µM. Same read-out and setting: with `CC[C@H](C)[C@H](N)C(=O)N[C@H](C(=O)N[C@@H](CC(C)C)C(=O)N[C@@H](CO)C(=O)N[C@@H](CC(C)C)C(=O)N[C@@H](CC(=O)O)C(=O)N[C@H](C(=O)N1CCC[C@H]1C(=O)N[C@H](C(=O)NCC(=O)N[C@@H](CC(C)C)C(=O)N[C@@H](CC(C)C)C(=O)N[C@@H](CCC(N)=O)C(=O)N[C@H](C(=O)N[C@@H](CC(C)C)C(=O)N[C@@H](CCCCNC(=O)COCCOCCNC(=O)COCCOCCNC(=O)CC[C@H](NC(=O)CC[C@H](NC(=O)CCCCCCCCCCCCCCCCC(=O)O)C(=O)O)C(=O)O)C(=O)N[C@@H](CCC(=O)O)C(=O)N[C@@H](CCC(N)=O)C(=O)N[C@@H](CCC(=O)O)C(=O)N[C@@H](CCCCN)C(=O)N[C@@H](CCC(N)=O)C(=O)N[C@@H](CCC(=O)O)C(=O)N[C@@H](CCCCN)C(=O)N[C@@H](CCC(=O)O)C(=O)N[C@@H](CCCCN)C(=O)N[C@@H](CCC(N)=O)C(=O)N[C@@H](CCC(N)=O)C(=O)N[C@@H](C)C(=O)N[C@H](C(=O)N[C@H](C(=O)N[C@@H](CC(N)=O)C(=O)N[C@@H](C)C(=O)N[C@@H](CCC(N)=O)C(=O)N[C@H](C(=O)N[C@@H](CC(C)C)C(=O)N[C@@H](C)C(=O)N[C@@H](Cc1c[nH]cn1)C(=O)N[C@H](C(N)=O)C(C)C)[C@@H](C)CC)[C@@H](C)O)[C@@H](C)O)[C@@H](C)CC)[C@@H](C)CC)C(C)C)C(C)C` [Compound 42] (H-IVLSLDVPIGLLQILK([AEEA-AEEA-γGlu-γGlu-C18 diacid])EQEKQEKEKQQATTNAQILAHV-NH2) the figure was 0.5 µM. Still for that read-out and setting: the value for `CC[C@H](C)[C@H](N)C(=O)N[C@H](C(=O)N[C@@H](CC(C)C)C(=O)N[C@@H](CO)C(=O)N[C@@H](CC(C)C)C(=O)N[C@@H](CC(=O)O)C(=O)N[C@H](C(=O)N1CCC[C@H]1C(=O)N[C@H](C(=O)NCC(=O)N[C@@H](CC(C)C)C(=O)N[C@@H](CC(C)C)C(=O)N[C@@H](CCC(N)=O)C(=O)N[C@H](C(=O)N[C@@H](CC(C)C)C(=O)N[C@@H](CC(C)C)C(=O)N[C@@H](CCC(=O)O)C(=O)N[C@@H](CCCCNC(=O)COCCOCCNC(=O)COCCOCCNC(=O)CC[C@H](NC(=O)CC[C@H](NC(=O)CCCCCCCCCCCCCCCCC(=O)O)C(=O)O)C(=O)O)C(=O)N[C@@H](CCC(=O)O)C(=O)N[C@@H](CCCCN)C(=O)N[C@@H](CCC(N)=O)C(=O)N[C@@H](CCC(=O)O)C(=O)N[C@@H](CCCCN)C(=O)N[C@@H](CCC(=O)O)C(=O)N[C@@H](CCCCN)C(=O)N[C@@H](CCC(N)=O)C(=O)N[C@@H](CCC(N)=O)C(=O)N[C@@H](C)C(=O)N[C@H](C(=O)N[C@H](C(=O)N[C@@H](CC(N)=O)C(=O)N[C@@H](C)C(=O)N[C@@H](CCC(N)=O)C(=O)N[C@H](C(=O)N[C@@H](CC(C)C)C(=O)N[C@@H](C)C(=O)N[C@@H](Cc1c[nH]cn1)C(=O)N[C@H](C(N)=O)C(C)C)[C@@H](C)CC)[C@@H](C)O)[C@@H](C)O)[C@@H](C)CC)[C@@H](C)CC)C(C)C)C(C)C` [Compound 44] (H-IVLSLDVPIGLLQILLEK([AEEA-AEEA-γGlu-γGlu-C18 diacid])EKQEKEKQQATTNAQILAHV-NH2) was 0.0134 µM.

Regarding `CC[C@H](C)[C@H](N)C(=O)N[C@H](C(=O)N[C@@H](CC(C)C)C(=O)N[C@@H](CO)C(=O)N[C@@H](CC(C)C)C(=O)N[C@@H](CC(=O)O)C(=O)N[C@H](C(=O)N1CCC[C@H]1C(=O)N[C@H](C(=O)NCC(=O)N[C@@H](CC(C)C)C(=O)N[C@@H](CC(C)C)C(=O)N[C@@H](CCC(N)=O)C(=O)N[C@H](C(=O)N[C@@H](CC(C)C)C(=O)N[C@@H](CC(C)C)C(=O)N[C@@H](CCC(=O)O)C(=O)N[C@@H](CCC(N)=O)C(=O)N[C@@H](CCC(=O)O)C(=O)N[C@@H](CCCCN)C(=O)N[C@@H](CCCCNC(=O)COCCOCCNC(=O)COCCOCCNC(=O)CC[C@H](NC(=O)CC[C@H](NC(=O)CCCCCCCCCCCCCCCCC(=O)O)C(=O)O)C(=O)O)C(=O)N[C@@H](CCC(=O)O)C(=O)N[C@@H](CCCCN)C(=O)N[C@@H](CCC(=O)O)C(=O)N[C@@H](CCCCN)C(=O)N[C@@H](CCC(N)=O)C(=O)N[C@@H](CCC(N)=O)C(=O)N[C@@H](C)C(=O)N[C@H](C(=O)N[C@H](C(=O)N[C@@H](CC(N)=O)C(=O)N[C@@H](C)C(=O)N[C@@H](CCC(N)=O)C(=O)N[C@H](C(=O)N[C@@H](CC(C)C)C(=O)N[C@@H](C)C(=O)N[C@@H](Cc1c[nH]cn1)C(=O)N[C@H](C(N)=O)C(C)C)[C@@H](C)CC)[C@@H](C)O)[C@@H](C)O)[C@@H](C)CC)[C@@H](C)CC)C(C)C)C(C)C` [Compound 45] (H-IVLSLDVPIGLLQILLEQEKK([AEEA-AEEA-γGlu-γGlu-C18 diacid])EKEKQQATTNAQILAHV-NH2), the EC50 came out at 0.0277 µM. With `CC[C@H](C)[C@H](N)C(=O)N[C@H](C(=O)N[C@@H](CC(C)C)C(=O)N[C@@H](CO)C(=O)N[C@@H](CC(C)C)C(=O)N[C@@H](CC(=O)O)C(=O)N[C@H](C(=O)N1CCC[C@H]1C(=O)N[C@H](C(=O)NCC(=O)N[C@@H](CC(C)C)C(=O)N[C@@H](CC(C)C)C(=O)N[C@@H](CCC(N)=O)C(=O)N[C@H](C(=O)N[C@@H](CC(C)C)C(=O)N[C@@H](CC(C)C)C(=O)N[C@@H](CCC(=O)O)C(=O)N[C@@H](CCC(N)=O)C(=O)N[C@@H](CCC(=O)O)C(=O)N[C@@H](CCCCN)C(=O)N[C@@H](CCC(N)=O)C(=O)N[C@@H](CCC(=O)O)C(=O)N[C@@H](CCCCN)C(=O)N[C@@H](CCC(=O)O)C(=O)N[C@@H](CCCCNC(=O)COCCOCCNC(=O)COCCOCCNC(=O)CC[C@H](NC(=O)CC[C@H](NC(=O)CCCCCCCCCCCCCCCCC(=O)O)C(=O)O)C(=O)O)C(=O)N[C@@H](CCC(N)=O)C(=O)N[C@@H](CCC(N)=O)C(=O)N[C@@H](C)C(=O)N[C@H](C(=O)N[C@H](C(=O)N[C@@H](CC(N)=O)C(=O)N[C@@H](C)C(=O)N[C@@H](CCC(N)=O)C(=O)N[C@H](C(=O)N[C@@H](CC(C)C)C(=O)N[C@@H](C)C(=O)N[C@@H](Cc1c[nH]cn1)C(=O)N[C@H](C(N)=O)C(C)C)[C@@H](C)CC)[C@@H](C)O)[C@@H](C)O)[C@@H](C)CC)[C@@H](C)CC)C(C)C)C(C)C` [Compound 46] (H-IVLSLDVPIGLLQILLEQEKQEKEK([AEEA-AEEA-γGlu-γGlu-C18 diacid])QQATTNAQILAHV-NH2), the EC50 worked out at 0.0117 µM.

For orientation: EC50 means the concentration giving half of the maximal effect.

For the origin of these results see patent US10894817B2, “Fatty acid modified urocortin-2 analogs for the treatment of diabetes and chronic kidney disease” (priority 2016, dated 2021).
